Test results published in article PMC2966118 (The Journal of Biological Chemistry, 2010).

Biological target: human recombinant TPC2 (hTPC2, HA-HsTPC2) (Homo sapiens, UniProt Q8NHX9)
Assay: single-channel recording in planar lipid bilayer, open probability
Type: biochemical

Chain of human recombinant TPC2 (hTPC2, HA-HsTPC2) (Q8NHX9 whole entry): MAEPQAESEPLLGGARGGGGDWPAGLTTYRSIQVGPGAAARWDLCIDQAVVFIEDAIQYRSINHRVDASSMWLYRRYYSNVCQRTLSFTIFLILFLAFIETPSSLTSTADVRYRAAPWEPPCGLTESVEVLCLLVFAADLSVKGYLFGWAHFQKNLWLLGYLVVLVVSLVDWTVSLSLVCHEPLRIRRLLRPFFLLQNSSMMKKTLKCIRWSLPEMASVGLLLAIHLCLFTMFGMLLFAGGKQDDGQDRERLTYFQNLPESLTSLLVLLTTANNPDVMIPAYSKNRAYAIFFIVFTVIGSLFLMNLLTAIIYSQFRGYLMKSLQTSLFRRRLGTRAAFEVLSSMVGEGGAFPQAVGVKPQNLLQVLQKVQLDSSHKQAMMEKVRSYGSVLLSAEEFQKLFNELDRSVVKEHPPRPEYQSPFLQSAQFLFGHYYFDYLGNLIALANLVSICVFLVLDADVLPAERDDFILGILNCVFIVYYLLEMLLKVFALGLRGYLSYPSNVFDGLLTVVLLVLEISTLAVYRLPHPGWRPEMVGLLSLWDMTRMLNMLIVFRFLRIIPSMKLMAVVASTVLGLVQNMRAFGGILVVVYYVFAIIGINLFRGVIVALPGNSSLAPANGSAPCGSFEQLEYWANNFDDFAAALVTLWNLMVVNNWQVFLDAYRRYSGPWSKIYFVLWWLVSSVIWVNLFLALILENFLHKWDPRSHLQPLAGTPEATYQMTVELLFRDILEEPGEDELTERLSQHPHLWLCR

Structure (SMILES): Nc1ncnc2c1ncn2[C@@H]1O[C@H](COP(=O)(O)OP(=O)(O)OC[C@H]2O[C@@H]([n+]3cccc(C(=O)O)c3)[C@H](O)[C@@H]2O)[C@@H](O)[C@H]1OP(=O)(O)O [NAADP]
- EC50: 500 nM
